Measured values: publication PMC4840125, “[^18F]tetrafluoroborate as a PET tracer for the sodium/iodide symporter: the importance of specific activity” (EJNMMI Research, 2016)
pIC50: −log10 of the molar value.

Biological target: T1, human sodium/iodide symporter (hNIS) (Homo sapiens, UniProt Q92911)
T1 construct: gene SLC5A5; hNIS stably transfected in HCT116 human colon carcinoma cells (HCT116-hNIS-C19)
T1 sequence (Q92911 1-643): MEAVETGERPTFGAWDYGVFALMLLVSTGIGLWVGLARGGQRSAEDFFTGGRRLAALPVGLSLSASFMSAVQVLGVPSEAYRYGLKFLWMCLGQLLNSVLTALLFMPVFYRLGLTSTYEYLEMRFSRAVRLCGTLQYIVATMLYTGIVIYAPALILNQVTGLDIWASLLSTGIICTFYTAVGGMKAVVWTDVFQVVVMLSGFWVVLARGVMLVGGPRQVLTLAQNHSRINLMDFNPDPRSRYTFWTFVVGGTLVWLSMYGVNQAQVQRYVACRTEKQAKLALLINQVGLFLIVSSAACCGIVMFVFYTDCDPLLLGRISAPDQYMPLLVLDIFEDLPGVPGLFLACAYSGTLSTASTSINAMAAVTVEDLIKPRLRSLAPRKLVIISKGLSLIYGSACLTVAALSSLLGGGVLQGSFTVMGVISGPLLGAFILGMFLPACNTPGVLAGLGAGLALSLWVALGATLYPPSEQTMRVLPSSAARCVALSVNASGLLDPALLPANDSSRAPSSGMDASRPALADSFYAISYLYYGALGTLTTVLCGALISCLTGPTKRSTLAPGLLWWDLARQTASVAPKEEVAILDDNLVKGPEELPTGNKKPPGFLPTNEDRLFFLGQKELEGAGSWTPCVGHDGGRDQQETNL
Assay: inhibition of […]BF4- uptake in hNIS-transfected cells, gamma counting
Assay type: cell-based

pIC50: 5.33
SMILES: F[B-](F)(F)F [[19F]BF4-]
